Assay results: patent US7585859B2, “PDE4B inhibitors and uses therefor” (Plexxikon, Inc., priority 2004, dated 2009)

Target: T1, PDE4D (Homo sapiens, UniProt Q08499)
T1 construct: PDE4D: The catalytic domain of human PDE4B from S3 16-V692; His6 (N); thrombin cleavage site (N); made in house; host or cells: E. coli
Assay: PDE4 IC50 determination by Scintillation Proximity Assay, PDE4D
Assay type: biochemical
Details: Table 1B, Formula I compounds; read-out: IC50 PDE4D
Experimental: (§1) IC50s were determined by Scintillation Proximity Assay (SPA). The principle of the assay is based on the fact that cAMP, the PDE4 substrate, binds weakly to Yittrium Silicate SPA beads, whereas AMP, the product of PDE4 hydrolysis binds strongly. Thus, the extent of PDE4 hydrolysis of a sample of [^3H]cAMP can be measured because only the
(§2) [^3H]AMP produced by PDE4 hydrolysis will bind to the SPA beads and produce a scintillation signal.
(§3) PDE4 enzymes used for IC50 assays were:
(§4) Enzyme was stored in 50% glycerol at −20°.
(§5) In addition to the compound dilutions, each assay plate contained control wells with 1 μl of DMSO (to define 0% enzyme inhibition) or 1 μl of 200 μM roflumilast (to define 100% enzyme inhibition). […] Next, 10 μl of PDE4 enzyme in assay buffer was added and the plates were shaken for 30 s. at 1000 rpm to start the cAMP hydrolysis reaction. The concentrations of enzyme used were: PDE4B, 80 ng/ml; PDE4D, 4 ng/ml; PDE4B2, 2.5 μl of 50% glycerol stock/ml; PDE4D5 0.083 μl of 50% glycerol stock/ml. Assay plates were covered and incubated for 30 min. at 30°. […] The assay plates were covered with clear plastic film, centrifuged for 1 min. at 1000 RPM to settle the SPA beads, and counted using a Wallac TriLux scintillation counter. IC50's were calculated from the raw assay data by non-linear regression curve fitting using the Assay Explorer software package from MDL.

T1 sequence (Q08499 380-756): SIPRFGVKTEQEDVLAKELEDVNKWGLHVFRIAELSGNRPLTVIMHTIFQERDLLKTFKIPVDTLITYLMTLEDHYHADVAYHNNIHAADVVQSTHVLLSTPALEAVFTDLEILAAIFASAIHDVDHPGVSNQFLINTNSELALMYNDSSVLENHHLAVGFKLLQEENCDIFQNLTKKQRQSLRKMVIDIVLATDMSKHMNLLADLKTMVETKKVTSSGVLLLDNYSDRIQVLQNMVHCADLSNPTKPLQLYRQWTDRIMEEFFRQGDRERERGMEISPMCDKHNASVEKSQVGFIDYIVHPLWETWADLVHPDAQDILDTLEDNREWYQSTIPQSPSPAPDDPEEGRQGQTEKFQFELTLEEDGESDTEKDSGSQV

Compound | IC50
CC1C2=C(CC(C)(C)CC2=O)Nc2sc(C(N)=O)c(N)c21 (centres unmarked) [Compound 1-4, 3-Amino-4,7,7-trimethyl-5-oxo-4,5,6,7,8,9-hexahydro-thieno[2,3-b]quinoline-2-carboxylic acid amide] | > 10 µM
Cc1cc(=O)[nH]c2sc(C(=O)c3ccc(Cl)c(Cl)c3)c(N)c12 [Compound 1-27, 3-Amino-2-(3,4-dichloro-benzoyl)-4-methyl-7H-thioeno[2,3-b]pyridin-6-one] | > 10 µM

Same assay, conditions: first part of Table 2B (2-1 to 2-22); read-out: IC 50 vs. indicated assay PDE4D

Compound | IC50
Nc1nc(Nc2ccc(Oc3ccccc3)cc2)sc1C(=O)c1cc(-c2ccccc2)no1 [Compound 2-8, [4-Amino-2-(4-phenoxy-phenylamino)-thiazol-5-yl]-(3-phenyl-isoxazol-5-yl)-methanone] | > 10 µM

Same assay, conditions: second part of Table 2B (2-23 to 2-103), column 5; column is PDE4D in first part; read-out: IC 50 vs. indicated assay h TNFα

Compound | IC50
Nc1nc(Nc2ccc(Oc3ccccc3)cc2)sc1C(=O)c1ccc(Oc2ccccc2)cc1 [Compound 2-47, [4-Amino-2-(4-phenoxy-phenylamino)-thiazol-5-yl]-(4-phenoxy-phenyl)-methanone] | > 10 µM
Nc1nc(Nc2ccc(Oc3ccccc3)cc2)sc1C(=O)c1ccc(OC(F)F)cc1 [Compound 2-61, [4-Amino-2-(4-phenoxy-phenylamino)-thiazol-5-yl]-(4-difluoromethoxy-phenyl)-methanone] | > 10 µM
COc1cccc(C(=O)c2sc(Nc3cccc(C#N)c3)nc2N)c1 [Compound 2-64, 3-[4-Amino-5-(3-methoxy-benzoyl)-thiazol-2-ylamino]-benzonitrile] | > 10 µM

Target: T2, PDE4B: The catalytic domain of human PDE4B from S152-S528 (Homo sapiens, UniProt Q07343)
T2 construct: His6 (N); thrombin cleavage site (N); made in house; host or cells: E. coli
Assay: PDE4 IC50 determination by Scintillation Proximity Assay, PDE4B
Assay type: biochemical
Details: Table 1B, Formula I compounds; read-out: IC50 PDE4B
Experimental: as §1, §2, §3, §4, §5

T2 sequence (Q07343 with tags, fused parts or gaps): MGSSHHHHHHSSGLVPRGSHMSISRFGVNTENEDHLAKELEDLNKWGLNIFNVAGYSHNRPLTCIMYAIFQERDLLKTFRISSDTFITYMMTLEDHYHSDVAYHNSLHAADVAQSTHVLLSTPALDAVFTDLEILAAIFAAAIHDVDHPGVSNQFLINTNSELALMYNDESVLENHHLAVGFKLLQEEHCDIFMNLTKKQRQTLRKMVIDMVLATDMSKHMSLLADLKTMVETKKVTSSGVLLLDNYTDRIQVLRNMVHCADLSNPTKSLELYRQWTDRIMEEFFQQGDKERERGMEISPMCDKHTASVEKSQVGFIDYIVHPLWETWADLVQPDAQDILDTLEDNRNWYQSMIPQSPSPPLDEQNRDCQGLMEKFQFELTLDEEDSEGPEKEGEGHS

Compound | IC50
3-Amino-2-(4-ethyl- phenylcarbamoyl)-6-oxo- 6,7-dihydro- thieno[2.3-b]pyridine- 5-carboxylic acid [Compound 1-6] | > 10 µM
Cc1cc(=O)[nH]c2sc(C(=O)c3ccc(Br)cc3)c(N)c12 [Compound 1-3, 3-Amino-2-(4-bromo-benzoyl)-4-methyl-7H-thieno[2,3-b]pyridin-6-one] | > 10 µM
CC1C2=C(CC(C)(C)CC2=O)Nc2sc(C(N)=O)c(N)c21 (centres unmarked) [Compound 1-4, 3-Amino-4,7,7-trimethyl-5-oxo-4,5,6,7,8,9-hexahydro-thieno[2,3-b]quinoline-2-carboxylic acid amide] | > 10 µM
CC(=O)C1=C(C)Nc2sc(C(N)=O)c(N)c2C1c1ccc(Cl)cc1 (centres unmarked) [Compound 1-5, 5-Acetyl-3-amino-4-(4-chloro-phenyl)-6-methyl-4,7-dihydro-thieno[2,3-b]pyridine-2-carboxylic acid amide] | < 10 µM
CC(=O)C1=C(C)Nc2sc(C(N)=O)c(N)c2C1c1ccco1 (centres unmarked) [Compound 1-7, 5-Acetyl-3-amino-4-furan-2-yl-6-methyl-4,7-dihydro-thieno[2,3-b]pyridine-2-carboxylic acid amide] | > 10 µM
CCc1ccc(C(=O)c2sc3c(c2N)C(c2cccnc2)C(C(C)=O)=C(C)N3)cc1 (centres unmarked) [Compound 1-8, 1-[3-Amino-2-(4-ethyl-benzoyl)-6-methyl-4-pyridin-3-yl-4,7-dihydro-thieno[2,3-b]pyridin-5-yl]-ethanone] | < 10 µM
CC(=O)C1=C(C)Nc2sc(C(=O)c3cccc([N+](=O)[O-])c3)c(N)c2C1c1cccnc1 (centres unmarked) [Compound 1-9, 1-[3-Amino-6-methyl-2-(3-nitro-benzoyl)-4-pyridin-3-yl-4,7-dihydro-thieno[2,3-b]pyridin-5-yl]-ethanone] | < 10 µM
NC(=O)c1sc2[nH]c(=O)c(C(=O)O)cc2c1N [Compound 1-10, 3-Amino-2-carbamoyl-6-oxo-6,7-diliydro-thieno[2,3-b]pyridine-5-carboxylic acid] | > 10 µM
Cc1ccc(C2CC(=O)Nc3sc(C(N)=O)c(N)c32)cc1 (centres unmarked) [Compound 1-11, 3-Amino-6-oxo-4-p-tolyl-4,5,6,7-tetrahydro-thieno[2,3-b]pyridine-2-carboxylic acid amide] | > 10 µM
CCNc1sc(C(=O)OC)c(N)c1C#N [Compound 1-13, 3-Amino-4-cyano-5-ethylamino-thiophene-2-carboxylic acid methyl ester] | < 10 µM
NC(=O)c1sc(Nc2ccccc2)c(-c2nc3ccccc3[nH]2)c1N [Compound 1-14, 3-Amino-4-(1H-benzoimidazol-2-yl)-5-phenylamino-thiophene-2-carboxylic acid amide] | < 10 µM
COc1ccc(C(=O)c2sc(Nc3ccc(Oc4ccccc4)cc3)c(C#N)c2N)cc1 [Compound 1-174] | < 10 µM
N#Cc1c(NC2CCCC2)sc(C(=O)c2cc(C(=O)N3CCOCC3)no2)c1N [Compound 1-175, 4-Amino-2-cyclopentylamino-5-[3-(morpholine-4-carbonyl)-isoxazole-5-carbonyl]-thiophene-3-carbonitrile] | < 10 µM
N#Cc1c(NC2CCCC2)sc(C(=O)c2ccc(-c3ccccc3)cc2)c1N [Compound 1-188, 4-Amino-5-(biphenyl-4-carbonyl)-2-cyclopentylamino-thiophene-3-carbonitrile] | < 10 µM
N#Cc1c(Nc2ccccc2Cl)sc(C(=O)c2ccc(Oc3ccccc3)cc2)c1N [Compound 1-194, 4-Amino-2-(2-chloro-phenylamino)-5-(4-phenoxy-benzoyl)-thiophene-3-carbonitrile] | < 10 µM

Same assay, conditions: Table 3A, Formula III compounds; read-out: IC50 PDE4B

Compound | IC50
CSc1nccc(-c2ccc(S(=O)(=O)Nc3ccc(Br)c4cccnc34)s2)n1 [Compound 3-17, 5-(2-Methylsulfanyl-pyrimidin-4-yl)-thiophene-2-sulfonic acid (5-bromo-quinolin-8-yl)-amide] | < 10 µM
COc1ccc(NS(=O)(=O)c2ccc(-c3ccnc(SC)n3)s2)c2ncccc12 [Compound 3-18, 5-(2-Methylsulfanyl-pyrimidin-4-yl)-thiophene-2-sulfonic acid (5-methoxy-quinolin-8-yl)-amide] | < 10 µM
CSc1ncc(-c2ccc(S(=O)(=O)N(C)c3cccc4cccnc34)s2)cn1 [Compound 3-19, 5-(2-Methylsulfanyl-pyrimidin-5-yl)-thiophene-2-sulfonic acid methyl-quinolin-8-yl-amide] | < 10 µM
O=S(=O)(Nc1ccc(Br)c2cccnc12)c1ccc(-c2cnco2)s1 [Compound 3-35, 5-Oxazol-5-yl-thiophene-2-sulfonic acid (5-bromo-quinolin-8-yl)-amide] | < 10 µM
COc1ccc(NS(=O)(=O)c2ccc(-c3cnco3)s2)c2ncccc12 [Compound 3-36, 5-Oxazol-5-yl-thiophene-2-sulfonic acid (5-methoxy-quinolin-8-yl)-amide] | < 10 µM
COc1cc(NS(=O)(=O)c2c(Cl)cccc2Cl)c2ncccc2c1 [Compound 3-50, 2,6-Dichloro-N-(6-methoxy-quinolin-8-yl)-benzenesulfonamide] | > 10 µM
O=S(=O)(Nc1cc(Br)cc2cccnc12)c1ccccc1 [Compound 3-59, N-(6-Bromo-quinolin-8-yl)-benzenesulfonamide] | > 10 µM
COc1ccc(Br)cc1S(=O)(=O)Nc1cccc2cccnc12 [Compound 3-60, 5-Bromo-2-methoxy-N-quinolin-8-yl-benzenesulfonamide] | > 10 µM
O=S(=O)(Nc1cccc2cccnc12)c1cccc(Nc2ccncn2)c1 [Compound 3-61, 3-(Pyrimidin-4-ylamino)-N-quinolin-8-yl-benzenesulfonamide] | < 10 µM
CSc1nc(Nc2ccc(S(=O)(=O)Nc3cccc4cccnc34)cc2)c2ccccc2n1 [Compound 3-62, 4-(2-Methylsulfanyl-quinazolin-4-ylamino)-N-quinolin-8-yl-benzenesulfonamide] | < 10 µM
CSc1nc(Nc2cccc(S(=O)(=O)Nc3cccc4cccnc34)c2)c2ccccc2n1 [Compound 3-63, 3-(2-Methylsulfanyl-quinazolin-4-ylamino)-N-quinolin-8-yl-benzenesulfonamide] | < 10 µM
O=C(c1ccncc1)c1ccc(S(=O)(=O)Nc2cccc3cccnc23)cc1 [Compound 3-64, 4-(Pyridine-4-carbonyl)-N-quinolin-8-yl-benzenesulfonamide] | < 10 µM
O=S(=O)(Nc1cccc2cccnc12)c1ccc(N2CCOCC2)cc1 [Compound 3-65, 4-Morpholin-4-yl-N-quinolin-8-yl-benzenesulfonamide] | < 10 µM
Cc1nccc(-c2cccc(S(=O)(=O)Nc3ccc(Br)c4cccnc34)c2)n1 [Compound 3-67, N-(5-Bromo-quinolin-8-yl)-3-(2-methyl-pyrimidin-4-yl)-benzenesulfonamide] | > 10 µM
COc1ccc(NS(=O)(=O)c2cccc(-c3ccnc(C)n3)c2)c2ncccc12 [Compound 3-68, N-(5-Methoxy-quinolin-8-yl)-3-(2-methyl-pyrimidin-4-yl)-benzenesulfonamide] | < 10 µM
O=S(=O)(Nc1cccc2cccnc12)c1ccc(Oc2ccccc2)nc1 [Compound 3-69, 6-Phenoxy-pyridine-3-sulfonic acid quinolin-8-ylamide] | > 10 µM

Same assay, conditions: second part of Table 2B (2-23 to 2-103), column 3; column is PDE4B in first part; read-out: IC 50 vs. indicated assay h TNFα

Compound | IC50
Nc1nc(Nc2c(F)cccc2F)sc1C(=O)c1ccccc1 [Compound 2-44, [4-Amino-2-(2,6-difluoro-phenylamino)-thiazol-5-yl]-phenyl-methanone] | < 10 µM
